Laboratory results: ChEMBL document CHEMBL1201862, “PubChem BioAssay data set” (2004)
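Each compound was tested at five concentrations against cells in 96-well plates for 48 hours. GI50 is the concentration that inhibits growth by half.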 Activity calls are given as the source filed them. Cut-off read from the data, not from the text of the source: active = GI50 up to about 1.1 µM and inactive = higher.

How the values were obtained:
Experiment in all cases: NCI anticancer screen, dose series, 48 h
786-0 = system: 786-0
COLO 205 = system: COLO 205
EKVX = system: EKVX
HCT-116 = system: HCT-116
HL-60 = system: HL-60
HOP-92 = system: HOP-92
IGROV-1 = system: IGROV-1
M14 = system: M14
NCI-H226 = system: NCI-H226
OVCAR-3 = system: OVCAR-3
OVCAR-4 = system: OVCAR-4
OVCAR-8 = system: OVCAR-8
RPMI-8226 = system: RPMI-8226
SF-268 = system: SF-268
SF-295 = system: SF-295
SK-MEL-28 = system: SK-MEL-28
SK-MEL-2 = system: SK-MEL-2
SN12C = system: SN12C
UO-31 = system: UO-31

Measured: GI50

CO/N=C(\C(=O)Nc1cncs1)c1csc(NC(c2ccccc2)(c2ccccc2)c2ccccc2)n1
inactive: 786-0 > 10 µM | COLO 205 > 10 µM | EKVX 6.12 µM | HCT-116 5 µM | HL-60 6.85 µM | HOP-92 > 10 µM | IGROV-1 > 10 µM | M14 > 10 µM | NCI-H226 > 10 µM | OVCAR-3 > 10 µM | OVCAR-4 > 10 µM | OVCAR-8 > 10 µM | RPMI-8226 4.52 µM | SF-268 9.79 µM | SF-295 7.21 µM | SK-MEL-28 > 10 µM | SK-MEL-2 > 10 µM | SN12C > 10 µM | UO-31 4.37 µM

CCCCCCCCC(C)CCCCCCCCC(=O)OCC(COP(=O)([O-])OCC[N+](C)(C)C)OC(=O)CCCCCCCCC(C)CCCCCCCC (configuration not stated)
inactive: 786-0 > 100 µM | COLO 205 > 100 µM | EKVX > 100 µM | HCT-116 > 100 µM | HL-60 > 100 µM | HOP-92 > 100 µM | IGROV-1 > 100 µM | M14 > 100 µM | NCI-H226 > 100 µM | OVCAR-3 > 100 µM | OVCAR-4 > 100 µM | OVCAR-8 > 100 µM | RPMI-8226 > 100 µM | SF-268 > 100 µM | SF-295 > 100 µM | SK-MEL-28 > 100 µM | SK-MEL-2 > 100 µM | SN12C > 100 µM | UO-31 > 100 µM

COc1cc(/C=N/N=C(\N)NO)c([N+](=O)[O-])cc1OC
inactive: 786-0 29.9 µM | COLO 205 36.1 µM | EKVX 18.1 µM | HCT-116 28.6 µM | HL-60 26.8 µM | HOP-92 29.2 µM | IGROV-1 53.2 µM | M14 41.1 µM | NCI-H226 14.7 µM | OVCAR-3 34 µM | OVCAR-4 15.2 µM | OVCAR-8 31.7 µM | RPMI-8226 73.8 µM | SF-268 25.2 µM | SF-295 30.6 µM | SK-MEL-28 > 100 µM | SK-MEL-2 26.5 µM | SN12C 27 µM | UO-31 35.7 µM

O=C(O)C(=O)/C=C\c1ccc(Cl)cc1
inactive: 786-0 > 100 µM | COLO 205 > 100 µM | EKVX > 100 µM | HCT-116 > 100 µM | HL-60 > 100 µM | HOP-92 80.9 µM | IGROV-1 > 100 µM | M14 > 100 µM | NCI-H226 > 100 µM | OVCAR-3 > 100 µM | OVCAR-4 > 100 µM | OVCAR-8 > 100 µM | RPMI-8226 > 100 µM | SF-268 > 100 µM | SF-295 > 100 µM | SK-MEL-28 > 100 µM | SK-MEL-2 > 100 µM | SN12C > 100 µM | UO-31 > 100 µM

COC(=O)C1(C(=O)OC)CC2c3c(c4ccccc4n3C)CC(C1=O)N2Cc1ccccc1 (configuration not stated)
inactive: 786-0 > 100 µM | COLO 205 > 100 µM | EKVX > 100 µM | HCT-116 > 100 µM | HL-60 96.8 µM | HOP-92 > 100 µM | IGROV-1 > 100 µM | M14 > 100 µM | NCI-H226 > 100 µM | OVCAR-3 > 100 µM | OVCAR-4 76.6 µM | OVCAR-8 > 100 µM | RPMI-8226 61.1 µM | SF-268 > 100 µM | SF-295 > 100 µM | SK-MEL-28 80 µM | SK-MEL-2 > 100 µM | SN12C > 100 µM | UO-31 > 100 µM

S=C(Nc1ccccc1)N(/N=C/C=C/c1ccccc1)c1nnc(-c2ccccc2)c(-c2ccccc2)n1
inactive: 786-0 > 100 µM | COLO 205 > 100 µM | EKVX 45.4 µM | HL-60 22.4 µM | HOP-92 18.7 µM | IGROV-1 > 100 µM | M14 63.4 µM | NCI-H226 24.3 µM | OVCAR-3 38.6 µM | OVCAR-4 30.5 µM | OVCAR-8 > 100 µM | RPMI-8226 26.1 µM | SF-268 30.5 µM | SF-295 42.9 µM | SK-MEL-28 54.6 µM | SK-MEL-2 56.8 µM | SN12C > 100 µM | UO-31 24.7 µM

Cc1cccc2c1C(=O)/C(=C/c1ccccc1C(=O)O)C2
inactive: 786-0 > 100 µM | COLO 205 > 100 µM | EKVX 66.8 µM | HCT-116 98.6 µM | HL-60 > 100 µM | HOP-92 > 100 µM | IGROV-1 > 100 µM | M14 > 100 µM | NCI-H226 98.4 µM | OVCAR-3 > 100 µM | OVCAR-4 > 100 µM | OVCAR-8 > 100 µM | RPMI-8226 32.8 µM | SF-268 > 100 µM | SF-295 > 100 µM | SK-MEL-28 > 100 µM | SK-MEL-2 > 100 µM | SN12C > 100 µM | UO-31 > 100 µM

Cc1cn2cc(-c3cccs3)nc2s1
inactive: 786-0 > 100 µM | COLO 205 > 95.5 µM | EKVX > 65.8 µM | HCT-116 > 100 µM | HL-60 55.8 µM | HOP-92 > 71.8 µM | IGROV-1 > 86.3 µM | M14 > 78.3 µM | NCI-H226 > 24.6 µM | OVCAR-3 > 100 µM | OVCAR-4 > 100 µM | OVCAR-8 > 100 µM | RPMI-8226 > 100 µM | SF-268 > 91.8 µM | SF-295 > 100 µM | SK-MEL-28 > 100 µM | SK-MEL-2 > 100 µM | SN12C > 100 µM | UO-31 48.8 µM

CC(=O)c1cccc(NC(=O)C(=O)C(C2OC(=O)c3ccccc32)[N+](=O)[O-])c1 (configuration not stated)
inactive: 786-0 > 100 µM | COLO 205 > 100 µM | EKVX > 100 µM | HCT-116 > 100 µM | HL-60 > 100 µM | HOP-92 > 100 µM | IGROV-1 > 100 µM | M14 > 100 µM | NCI-H226 > 100 µM | OVCAR-3 > 100 µM | OVCAR-4 > 100 µM | RPMI-8226 > 100 µM | SF-268 > 100 µM | SF-295 > 100 µM | SK-MEL-28 > 100 µM | SK-MEL-2 > 100 µM | SN12C > 100 µM | UO-31 60.1 µM

C(=N\c1ccc(-c2nc3ccccc3[nH]2)cc1)/c1ccco1
inactive: 786-0 > 100 µM | COLO 205 43.9 µM | EKVX > 100 µM | HCT-116 57.3 µM | HL-60 24.3 µM | HOP-92 44.1 µM | IGROV-1 > 100 µM | M14 > 100 µM | NCI-H226 > 100 µM | OVCAR-3 91.4 µM | OVCAR-4 70 µM | OVCAR-8 34.4 µM | RPMI-8226 34.8 µM | SF-268 > 100 µM | SK-MEL-28 > 100 µM | SK-MEL-2 67.8 µM | SN12C > 100 µM | UO-31 75.7 µM
